Data reported in patent US20070004689A1, “Antiangiogenic agents” (priority 2004, published 2007).
Like-named read-outs stand apart in the source and are kept apart here.

Legend:
[1] = Rat pharmacokinetics, cassette dosing, oral; type: in vivo; conditions: oral 5 mg/kg, plasma
Description: Pharmokinetics (PK): PO Cmax is the maximal concentration of drug achieved after oral administration in rats and AUC is the area under the curve. These parameters are an indication of oral bioavailability. PK parameters were determined using a cassette-dosing approach. A group of new chemical entities (NCEs) (usually 3-6 molecules) was dissolved in DMSO or ethanol and diluted with a solution of a dextrin polymer to the final working concentration (usually 0.2-2 mg/mL). Groups of three rats with in-dwelling catheters were dosed either orally (5 mg/kg) or i.v. (1 mg/kg) with the cassette of NCEs. Blood was collected at nine time points from 2 minutes to 24 hours. Plasma was separated and aliquots of the replicate samples were pooled for analysis. Plasma proteins were precipitated by addition of organic solvent (most often methanol or acetonitrile). For some analogs, an acid modifier was added to the precipitation mixture to enhance recovery. Precipitated proteins were removed by centrifugation and the supernatant was injected onto a C18 reversed phase column attached to an LC-MS-MS mass spectrometer. Analytes were partly resolved by a rapid (5 minute) gradient of organic modifier. Analytes were measured as either positive or negative ions, depending on ionization characteristics, in the SRM (or MS-MS) mode. Quantification was carried out by correlation of peak heights or areas for each analyte to a set of concentration standards of the same analytes diluted into blank plasma. Concentration vs. time data was analyzed by WinNonLin.

[2] = system: Human umbilical vein endothelial cells (HUVEC); assay: BrdU proliferation assay, HUVEC (anti-angiogenic activity); type: cell-based; conditions: BrdU DNA synthesis, 48 h exposure, read-out: HUVEC (IC50 μM)
From the text: (§1) Cell Culture: Human umbilical vein endothelial cells (HUVEC) were obtained from Clonetics (San Diego, Calif.), MCF7 cells were the kind gift of Dr. Dorraya El Ashry (University of Michigan), MDA-MB-231 a human breast carcinoma, PC3 a human prostate carcinoma, and U87-MG a human glioma, cell lines were obtained from ATCC. HUVEC cultures were maintained for up to 5 passages in EGM containing bovine brain extract (Clonetics) and 1× antibiotic-antimycotic (BioWhittaker, Walkersville, Md.). MDA-MB-231, PC3, U87-MG and MCF-7 cells were maintained in DMEM/F12 (1:1) containing 10% (v/v) fetal bovine serum (Hyclone Laboratories, Logan, Utah) and 1× antibiotic-antimycotic. MCF7 cells were used between passage 60 and passage 100.
(§2) Proliferation Assays: Proliferation was measured by cell counting using a Coulter Zl cell counter (Coulter Corporation, Hialeah, Fla.) or by evaluation of DNA synthesis. Each condition was done in triplicate and experiments were repeated at least twice. To determine estrogenicity of the analogs, MCF7 estrogen-dependent proliferation assays were performed. The cells were seeded in complete media at 10,000 cells/well in a 24 well plate after allowing the cells to adhere overnight and the seeding density was determined by cell counts. Cells were washed with PBS (37° C.) and starved by placing them in IMEM-phenol red free media containing 2% charcoal-dextran fetal bovine-stripped serum (Valley Biomedical, Winchester, Va.) and 1× antibiotic-antimycotic. After 3 days of starvation, cells were treated with or without increasing concentrations of compounds, replacing the media every 2-3 days and counted after 7 days of treatment. In order to ensure that only the added test compounds stimulated growth, experiments were performed only with cell cultures that duplicated less than once during the starvation period. Values are expressed as MCF7 stimulation index (SI) relative to 2ME2 (defined as 1.00). A value less than 1.00 indicates reduced estrogenicity. Estradiol is used as a positive control.
(§3) To determine anti-tumor and anti-angiogenic activities of the analogs, proliferation assays were performed by evaluating detection of DNA synthesis by use of the 5-bromo-2′-deoxyuridine (BrdU) cell proliferation colorimetric ELISA kit from Roche (Indianapolis, Ind.) according to the manufacturer's instructions. For BrdU assays, the cells were seeded at 1,000 cells/well (MDA-MB-231, anti-tumor activity) or 3,000 cells/well (HUVEC, anti-angiogenic activity) in a 96 well plate, allowed to attach overnight and then exposed to the compound for 48 h. IC50 value is the concentration at which cell proliferation is inhibited by 50%.
(§4) Antiproliferative activity of the NCEs were assessed in tumor cell lines (MDA-MB-231 a breast carcinoma, PC3 a prostate carcinoma and U87-MG a glioma) and endothelial cells (HUVEC).

[3] = system: CYP450 (CYP1A2, CYP2C9, CYP2C19, CYP2D6, CYP3A) in pooled human liver microsomes; assay: CYP450 inhibition using human microsomes; type: in vitro ADME; conditions: test compound 0.034-25 μM, CYP inhibited
Description: Determination of CYP450 inhibition and IC50 value using human microsomes: CYP450 inhibition provides a measure of potential issues with co-medication, since CYP450 enzymes metabolize many drugs. Microsomal incubation mixtures (500 μL) were prepared in HEPES buffer (50 mM HEPES, 15 mM MgCl2, 0.1 mM EDTA, pH 7.6) containing a NADPH regenerating system (1 mM NADPH, 10 mM glucose-6-phosphate 1 IU glucose-6-phosphate dehydrogenase), pooled human liver microsomes (0.5 mg protein), and 5 μL of 7 concentrations of compounds and positive control inhibitors (see Tables IV, V and VI).
After addition of the compounds or positive control inhibitors, the samples were pre-incubated at 37° C. for approximately 5 minutes. Subsequently, the P450 substrate cocktail were added to the reaction mixture and incubated for 20 minutes at 37° C. Reactions were terminated by the addition of 250 μL of methanol containing 5 μM dextrorphan as an internal standard (IS). The samples were vortexed briefly, placed on ice, and then centrifuged at approximately 12000×g for 5 minutes to remove debris. The supernatant from each sample was then transferred to a separate vial for LC-MS/MS analysis. Analysis to determine the amount of substrate specific metabolites (relative to the control samples) was carried out using reverse phase HPLC with tandem mass spectrometric detection (LC-MS/MS). Analysis of the data was carried out using Micromass MetaboLynx and QuanLynx software Versions 3.5 to determine the amount of the specific substrate metabolites produced in each sample (relative to the control samples).

U87-MG a human glioma = assay: Proliferation assay, U87-MG; type: cell-based; conditions: proliferation, read-out: U87-MG (IC50 μM)
From the text: as §1, §2, §3, §4

`COc1cc2c(cc1C(N)=O)CC[C@@H]1[C@@H]2CC[C@]2(C)C(=O)CC[C@@H]12` [Compound 54, 2-methoxy-17-oxoestra-1,3,5(10)-triene-3-carboxamide] showed an AUC ([1]; rat) of 0.185 µM·h, a Cmax ([1]; rat) of 47 nM and an IC50 ([2]; Homo sapiens, HUVEC) of 5.46 ± 1.57 µM. For the same compound, the CYP450 inhib. [3] was “None” and the IC50 (U87-MG a human glioma; Homo sapiens, U-87 MG) was 2.23 ± 0.4 µM.
For `COc1cc2c(cc1C(N)=O)CC[C@@H]1[C@@H]2CC[C@]2(C)CCC[C@@H]12` [Compound 57, (2-Methoxyestra-1,3,5(10)-trien-3-yl)-3-carboxamide], the Cmax [1] was 130 nM, the Rat PO AUC (nM) [1] was 624 nM·h and the IC50 [2] was 0.96 ± 0.26 µM. The CYP450 inhib. [3] was “None” and the IC50 (U87-MG a human glioma) was 10 ± 2.49 µM.
In the case of `C=C1CC[C@H]2[C@@H]3CCc4cc(C(N)=O)c(OC)cc4[C@H]3CC[C@]12C` [Compound 60, 2-Methoxy-17-methyleneestra-1,3,5(10)-triene-3-carboxamide], the AUC ([1]; rat) is reported as 1.4 µM·h, the Cmax ([1]; rat) is reported as 185 nM and the IC50 ([2]; Homo sapiens, HUVEC) is reported as 0.12 ± 0.06 µM. The CYP450 inhib. [3] was “None” and the IC50 (U87-MG a human glioma; Homo sapiens, U-87 MG) was 0.25 ± 0.02 µM.
For `COc1cc2c(cc1C(N)=O)CC[C@@H]1[C@@H]2CC[C@]2(C)C=CC[C@@H]12` [Compound 63, 3-carboxamide-2-methoxy-1,3,5(10)16-estratetraene], the Cmax [1] was 127 nM, the Rat PO AUC (nM) [1] was 961 nM·h and the IC50 [2] was 0.13 ± 0.05 µM. For the same compound, the CYP450 inhib. [3] was “None” and the IC50 (U87-MG a human glioma) was 0.23 ± 0.08 µM.
